These results are taken from article PMC8921165, “Preclinical characterization of [^18F]T-008, a novel PET imaging radioligand for cholesterol 24-hydroxylase” (European Journal of Nuclear Medicine and Molecular Imaging, 2021).

Assay [1] has as its target T1, Cholesterol 24-hydroxylase (CH24H) (Mus musculus, UniProt Q9WVK8).
T1 construct: gene Cyp46a1
The assay is described as follows: [3H]T-008 saturation radioligand binding; autoradiography in WT vs CH24H KO mouse brain sections.

Assay [2] has as its target T2, Cholesterol 24-hydroxylase (CH24H) (Macaca mulatta, UniProt A0A5F7ZPE8).
T2 construct: gene CYP46A1
The assay is described as follows: in vivo PET enzyme occupancy, displacement of […]T-008 in rhesus brain.

Broadly, the Kd is the equilibrium constant for the complex coming apart. A high value points to lower affinity. A word on the EC50: it is the midpoint of the concentration-response curve.

T1 sequence (Q9WVK8 whole entry): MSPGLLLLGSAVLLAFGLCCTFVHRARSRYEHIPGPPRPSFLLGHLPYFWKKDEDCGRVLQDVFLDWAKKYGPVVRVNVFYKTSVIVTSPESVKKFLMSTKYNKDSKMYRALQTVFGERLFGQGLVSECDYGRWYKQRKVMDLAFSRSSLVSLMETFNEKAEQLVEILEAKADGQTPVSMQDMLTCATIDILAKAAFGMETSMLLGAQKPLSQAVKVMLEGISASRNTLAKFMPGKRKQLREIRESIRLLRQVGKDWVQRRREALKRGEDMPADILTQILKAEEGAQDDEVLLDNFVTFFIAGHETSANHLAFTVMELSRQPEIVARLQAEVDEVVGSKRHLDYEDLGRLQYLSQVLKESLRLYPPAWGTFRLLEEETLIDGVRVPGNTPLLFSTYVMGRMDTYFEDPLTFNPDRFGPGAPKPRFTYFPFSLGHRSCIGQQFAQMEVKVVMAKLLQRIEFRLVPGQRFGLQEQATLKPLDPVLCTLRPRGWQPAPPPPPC
T2 sequence (A0A5F7ZPE8 1-500): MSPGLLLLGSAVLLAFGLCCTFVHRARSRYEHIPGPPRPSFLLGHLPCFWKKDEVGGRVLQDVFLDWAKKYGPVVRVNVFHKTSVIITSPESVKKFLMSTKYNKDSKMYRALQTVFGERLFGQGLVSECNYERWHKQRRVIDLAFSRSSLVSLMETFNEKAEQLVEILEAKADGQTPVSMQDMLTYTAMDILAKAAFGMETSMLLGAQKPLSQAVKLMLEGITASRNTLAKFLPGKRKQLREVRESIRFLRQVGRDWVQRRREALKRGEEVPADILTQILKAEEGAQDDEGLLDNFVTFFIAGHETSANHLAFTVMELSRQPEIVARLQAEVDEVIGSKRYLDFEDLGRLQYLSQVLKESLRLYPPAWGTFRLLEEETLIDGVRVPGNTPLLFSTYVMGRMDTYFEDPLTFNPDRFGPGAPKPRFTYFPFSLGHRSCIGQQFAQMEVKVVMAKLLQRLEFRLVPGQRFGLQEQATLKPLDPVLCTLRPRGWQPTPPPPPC

`O=C(C1CCN(c2cncnc2-c2ccc(F)cc2)CC1)N1CC(F)C1` [T-008, (3-fluoroazetidin-1-yl){1-[4-(4-fluorophenyl)pyrimidin-5-yl]piperidin-4-yl}methanone] registered a Kd in assay [1] of 14 ± 1 nM. Consider `O=C(c1cccnc1-c1ccncc1)N1CCC(O)(Cc2ccccc2)CC1` [soticlestat, (4-benzyl-4-hydroxypiperidin-1-yl)(2,4′-bipyridin-3-yl) methanone], for which the EC50 in assay [2] is 3.39 nM. This counts as single-digit nanomolar.
